pIC50: −log10 of the molar value.
Key:
HDAC6 human recombinant = target: T1, HDAC6 human recombinant (Homo sapiens, UniProt Q9UBN7); test: Inhibition of HDAC6 activity (fluorimetric assay); type: biochemical; settings: test concentrations 0.1, 1, 10, 100 and 1000 nM; 37° C., 60 minutes
T1 construct: purchased Calbiochem 382180
T1 sequence (Q9UBN7 1-1215): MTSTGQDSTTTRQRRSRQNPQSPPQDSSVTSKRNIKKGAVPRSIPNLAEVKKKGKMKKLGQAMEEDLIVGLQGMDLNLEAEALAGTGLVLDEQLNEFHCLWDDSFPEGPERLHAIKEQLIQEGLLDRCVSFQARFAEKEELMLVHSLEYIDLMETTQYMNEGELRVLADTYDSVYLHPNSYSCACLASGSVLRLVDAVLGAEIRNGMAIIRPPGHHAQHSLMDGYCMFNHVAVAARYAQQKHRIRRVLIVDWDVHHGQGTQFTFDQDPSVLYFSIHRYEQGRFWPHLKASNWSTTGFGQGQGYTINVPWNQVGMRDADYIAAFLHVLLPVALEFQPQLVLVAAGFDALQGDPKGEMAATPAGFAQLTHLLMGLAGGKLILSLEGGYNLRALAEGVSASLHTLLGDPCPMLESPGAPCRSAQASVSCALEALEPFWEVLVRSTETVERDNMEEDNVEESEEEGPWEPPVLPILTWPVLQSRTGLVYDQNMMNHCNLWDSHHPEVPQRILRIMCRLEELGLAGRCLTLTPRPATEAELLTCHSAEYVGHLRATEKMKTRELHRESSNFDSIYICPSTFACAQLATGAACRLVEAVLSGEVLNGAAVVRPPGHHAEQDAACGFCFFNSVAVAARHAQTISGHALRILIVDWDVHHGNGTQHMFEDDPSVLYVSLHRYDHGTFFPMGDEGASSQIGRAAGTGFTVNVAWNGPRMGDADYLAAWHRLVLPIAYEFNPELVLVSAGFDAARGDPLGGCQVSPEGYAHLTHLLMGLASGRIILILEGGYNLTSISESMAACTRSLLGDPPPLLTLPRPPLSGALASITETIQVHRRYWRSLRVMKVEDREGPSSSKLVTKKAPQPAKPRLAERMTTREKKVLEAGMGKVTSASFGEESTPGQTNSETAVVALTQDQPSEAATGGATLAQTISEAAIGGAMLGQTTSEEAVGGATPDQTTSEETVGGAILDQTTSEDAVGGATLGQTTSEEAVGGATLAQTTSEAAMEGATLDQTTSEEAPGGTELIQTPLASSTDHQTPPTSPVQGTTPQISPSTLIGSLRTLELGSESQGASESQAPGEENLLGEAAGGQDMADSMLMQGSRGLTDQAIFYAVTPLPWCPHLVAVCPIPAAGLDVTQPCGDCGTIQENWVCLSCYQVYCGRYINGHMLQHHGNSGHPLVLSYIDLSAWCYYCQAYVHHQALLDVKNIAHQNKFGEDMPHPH
Summary of the method: (§1)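 HDAC1 tested with the kit assay mixture at 100, 1000 and 10000 nM compound; recombinant human HDAC6 at 0.1, 1, 10, 100 and 1000 nM. Reaction ran 60 min at 37° C, then developer was added for 30 min at 37° C and fluorescence quantified.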

HDAC1 = target: T2, HDAC1 (Homo sapiens, UniProt Q13547); test: Inhibition of HDAC1 activity (HDAC1 fluorimetric drug discovery assay kit); type: biochemical; settings: test concentrations 100, 1000 and 10000 nM; 37° C., 60 minutes
T2 construct: purchased Enzolifesciences BML-AK511
T2 sequence (Q13547 whole entry): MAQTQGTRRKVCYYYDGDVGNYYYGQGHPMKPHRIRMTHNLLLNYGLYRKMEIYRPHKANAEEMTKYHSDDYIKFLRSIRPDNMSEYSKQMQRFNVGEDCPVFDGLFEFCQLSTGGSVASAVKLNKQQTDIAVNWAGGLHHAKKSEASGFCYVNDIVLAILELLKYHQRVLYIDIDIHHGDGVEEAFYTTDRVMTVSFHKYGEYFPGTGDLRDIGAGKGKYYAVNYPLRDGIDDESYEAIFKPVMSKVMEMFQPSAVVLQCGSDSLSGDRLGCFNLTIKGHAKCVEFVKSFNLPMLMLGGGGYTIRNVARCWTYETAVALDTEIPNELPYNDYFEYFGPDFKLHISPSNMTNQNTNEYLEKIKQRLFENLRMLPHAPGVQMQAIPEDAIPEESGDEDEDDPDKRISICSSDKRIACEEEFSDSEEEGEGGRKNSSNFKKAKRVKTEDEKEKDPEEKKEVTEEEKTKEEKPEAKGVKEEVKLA
Summary of the method: as §1

| SMILES | pIC50 (HDAC6 human recombinant) | pIC50 (HDAC1) |
| --- | --- | --- |
| CN1CCN(c2ccccc2CN2CCC(c3ccnc4c3ccn4Cc3ccc(C(=O)NO)cc3)CC2)CC1 [Compound 984, N-hydroxy-4-((4-(1-(2-(4-methylpiperazin-1-yl)benzyl)piperidin-4-yl)-1H-pyrrolo[2,3-b]pyridin-1-yl)methyl)benzamide] | 8.12 | 6.28 |
| O=C(NO)c1ccc(Cn2ccc3c(C4CCN(Cc5cccc(CN6CCOCC6)c5)CC4)ccnc32)cc1 [Compound 985, N-hydroxy-4-((4-(1-(3-(morpholinomethyl)benzyl)piperidin-4-yl)-1H-pyrrolo[2,3-b]pyridin-1-yl)methyl)benzamide] | 8.64 | 6.29 |
| CN1CCN(Cc2cccc(CN3CCC(c4ccnc5c4ccn5Cc4ccc(C(=O)NO)cc4)CC3)c2)CC1 [Compound 986, N-hydroxy-4-((4-(1-(3-((4-methylpiperazin-1-yl)methyl)benzyl)piperidin-4-yl)-1H-pyrrolo[2,3-b]pyridin-1-yl)methyl)benzamide] | 7.94 | 6.38 |
| O=C(NO)c1ccc(Cn2ccc3c(C4CCN(Cc5ccc(CN6CCOCC6)cc5)CC4)ccnc32)cc1 [Compound 987, N-hydroxy-4-((4-(1-(4-(morpholinomethyl)benzyl)piperidin-4-yl)-1H-pyrrolo[2,3-b]pyridin-1-yl)methyl)benzamide] | 8.24 | 6.49 |
| CN1CCN(Cc2ccc(CN3CCC(c4ccnc5c4ccn5Cc4ccc(C(=O)NO)cc4)CC3)cc2)CC1 [Compound 988, N-hydroxy-4-((4-(1-(4-((4-methylpiperazin-1-yl)methyl)benzyl)piperidin-4-yl)-1H-pyrrolo[2,3-b]pyridin-1-yl)methyl)benzamide] | 8.23 | 6.54 |
| C[C@@H]1CN(c2ccnc3c2ccn3Cc2ccc(C(=O)NO)cc2)C[C@H](C)N1Cc1ccccc1 [Compound 990, 4-((4-((3S,5R)-4-benzyl-3,5-dimethylpiperazin-1-yl)-1H-pyrrolo[2,3-b]pyridin-1-yl)methyl)-N-hydroxybenzamide] | 8.34 | 5.87 |
| CC(C)(O)CN1CCC(c2ccc3ccn(Cc4ccc(C(=O)NO)cc4)c3n2)CC1 [Compound 991, N-hydroxy-4-((6-(1-(2-hydroxy-2-methylpropyl)piperidin-4-yl)-1H-pyrrolo[2,3-b]pyridin-1-yl)methyl)benzamide] | 7.49 | 6.06 |
| O=C(NO)c1ccc(Cn2ccc3ccc(C4CCN(Cc5cccnc5)CC4)nc32)cc1 [Compound 992, N-hydroxy-4-((6-(1-(pyridin-3-ylmethyl)piperidin-4-yl)-1H-pyrrolo[2,3-b]pyridin-1-yl)methyl)benzamide] | 7.47 | 6.07 |
| COc1cccc(CN2[C@H](C)CN(c3cnc4c(ccn4Cc4ccc(C(=O)NO)cc4)c3)C[C@@H]2C)c1 [Compound 1003] | 8.11 | 5.57 |
| C[C@@H]1CN(c2cnc3c(ccn3Cc3ccc(C(=O)NO)cc3)c2)C[C@H](C)N1Cc1cccnc1 [Compound 1004, 4-((5-((3S,5R)-3,5-dimethyl-4-(pyridin-3-ylmethyl)piperazin-1-yl)-1H-pyrrolo[2,3-b]pyridin-1-yl)methyl)-N-hydroxybenzamide] | 8.49 | 6.21 |
| C[C@@H]1CN(c2cnc3c(ccn3Cc3ccc(C(=O)NO)cc3)c2)C[C@H](C)N1Cc1ncccn1 [Compound 1005, 4-((5-((3S,5R)-3,5-dimethyl-4-(pyrimidin-2-ylmethyl)-1-yl)-1H-pyrrolo[2,3-b]pyridin-1-yl)methyl)-N-hydroxybenzamide] | 8.26 | 6.12 |
| O=C(NO)c1ccc(Cn2ccc3c(C4CCN(Cc5cccnc5)CC4)ccnc32)cc1 [Compound 1014, N-hydroxy-4-((4-(1-(pyridin-3-ylmethyl)piperidin-4-yl)-1H-pyrrolo[2,3-b]pyridin-1-yl)methyl)benzamide] | 8.07 | 6.17 |
| CC(CC(=O)O)N1CCC(c2ccnc3c2ccn3Cc2ccc(C(=O)NO)cc2)CC1 (stereo not shown) [Compound 1015, 3-(4-(1-(4-(hydroxycarbamoyl)benzyl)-1H-pyrrolo[2,3-b]pyridin-4-yl)piperidin-1-yl)butanoic acid] | 8.07 | 6.17 |

Further lines, results first:

| pIC50 (HDAC6 human recombinant) | pIC50 (HDAC1) | SMILES |
| --- | --- | --- |
| 8.22 | 6.66 | CC(C)(O)CN1C2CCC1CN(c1ccnc3c1ccn3Cc1ccc(C(=O)NO)cc1)C2 [Compound 1017, N-hydroxy-4-((4-(8-(2-hydroxy-2-methylpropyl)-3,8-diazabicyclo[3.2.1]octan-3-yl)-1H-pyrrolo[2,3-b]pyridin-1-yl)methyl)benzamide] |
| 8.17 | 6.59 | O=C(NO)c1ccc(Cn2ccc3c(N4CC5CCC(C4)N5Cc4cccnc4)ccnc32)cc1 [Compound 1019, N-hydroxy-4-((4-(8-(pyridin-3-ylmethyl)-3,8-diazabicyclo[3.2.1]octan-3-yl)-1H-pyrrolo[2,3-b]pyridin-1-yl)methyl)benzamide] |
| 7.85 | 6.62 | COc1ccc(CN2CCC3(CCN(c4ccnc5c4ccn5Cc4ccc(C(=O)NO)cc4)CC3)C2)cc1 [Compound 1021, N-hydroxy-4-((4-(2-(4-methoxybenzyl)-2,8-diazaspiro[4.5]decan-8-yl)-1H-pyrrolo[2,3-b]pyridin-1-yl)methyl)benzamide] |
| 8.24 | 7.15 | O=C(NO)c1ccc(Cn2ccc3c(N4CCC5(CCN(Cc6cccnc6)C5)CC4)ccnc32)cc1 [Compound 1022, N-hydroxy-4-((4-(2-(pyridin-3-ylmethyl)-2,8-diazaspiro[4.5]decan-8-yl)-1H-pyrrolo[2,3-b]pyridin-1-yl)methyl)benzamide] |
| 8.48 | 6.25 | COc1ccc(CN2CC3(CCN(c4ccnc5c4ccn5Cc4ccc(C(=O)NO)cc4)CC3)C2)cc1 [Compound 1023, N-hydroxy-4-((4-(2-(4-methoxybenzyl)-2,7-diazaspiro[3.5]nonan-7-yl)-1H-pyrrolo[2,3-b]pyridin-1-yl)methyl)benzamide] |
| 8.74 | 6.72 | O=C(NO)c1ccc(Cn2ccc3c(N4CCC5(CC4)CN(Cc4cccnc4)C5)ccnc32)cc1 [Compound 1024, N-hydroxy-4-((4-(2-(pyridin-3-ylmethyl)-2,7-diazaspiro[3.5]nonan-7-yl)-1H-pyrrolo[2,3-b]pyridin-1-yl)methyl)benzamide] |
| 8.96 | 6.77 | CC(C)(O)CN1CC2(CCN(c3ccnc4c3ccn4Cc3ccc(C(=O)NO)cc3)CC2)C1 [Compound 1025, N-hydroxy-4-((4-(2-(2-hydroxy-2-methylpropyl)-2,7-diazaspiro[3.5]nonan-7-yl)-1H-pyrrolo[2,3-b]pyridin-1-yl)methyl)benzamide] |
| 8.85 | 6.38 | CC(C)(C(=O)O)N1CCC(c2ccnc3c2ccn3Cc2ccc(C(=O)NO)cc2)CC1 [Compound 1028, 2-(4-(1-(4-(hydroxycarbamoyl)benzyl)-1H-pyrrolo[2,3-b]pyridin-4-yl)piperidin-1-yl)-2-methylpropionic acid] |
| 9.00 | 6.30 | O=C(NO)c1ccc(Cn2ccc3cc(N4CCC5(CCN(Cc6cccnc6)C5)CC4)cnc32)cc1 [Compound 1101, N-hydroxy-4-((5-(2-(pyridin-3-ylmethyl)-2,8-diazaspiro[4.5]decan-8-yl)-1H-pyrrolo[2,3-b]pyridin-1-yl)methyl)benzamide] |
| 8.91 | 6.19 | O=C(NO)c1ccc(Cn2ccc3cc(N4CCC5(CC4)CN(Cc4ccccn4)C5)cnc32)cc1 [Compound 1126, N-hydroxy-4-((5-(2-(pyridin-2-ylmethyl)-2,7-diazaspiro[3.5]nonan-7-yl)-1H-pyrrolo[2,3-b]pyridin-1-yl)methyl)benzamide] |
